Results on 28 compounds are retold here after PubChem BioAssay AID651790 (The Scripps Research Institute Molecular Screening Center, 2012).

pEC50: −log10 of the molar value. Activity calls are given as the source filed them. How the calls were made is not given here.

As a reminder, the EC50 is the concentration that produces a half-maximal response. Broadly, the pEC50 is −log10 of the EC50, conventionally taken in molar units.

The subject of this assay is cells with GAA30 frataxin promoter-luciferase, luminescence. Kind of assay: GAA30 FXN promoter reporter activators, dose response, counter-screen for GAA850 frataxin promoter activators, cell-based, luminescence, GAA30 repeat (AID 651790). A general note: Counterscreens check selectivity or assay interference.
For the compound `COc1ccccc1NC(=O)c1cnc(SCC(=O)Nc2ccc3c(c2)OCO3)n(C)c1=O`, the EC50 is > 59.6 µM (inactive). Still for that read-out and setting: next, `COc1ccccc1CNC(=O)CSc1ncc(C(=O)Nc2ccccc2)c(=O)n1C`: > 59.6 µM (inactive); `COc1ccccc1NC(=O)c1cnc(SCC(=O)NCC2CCCO2)n(C)c1=O` (stereo not drawn): > 59.6 µM (inactive); `COc1ccc(-c2nnc(Nc3nc4ccc(F)cc4s3)o2)c(OC)c1`: > 59.6 µM (inactive). Same read-out and setting: next, `Clc1ccccc1-c1nnc(Nc2nc3cc4c(cc3s2)OCO4)o1`: 53.1 µM (inactive); `COc1ccccc1NC(=O)c1cnc(SCC(=O)Nc2cc(C)on2)n(C)c1=O`: > 59.6 µM (inactive); `COc1ccc(-c2nnc(Nc3nc4ccc(OC)cc4s3)o2)c(OC)c1`: > 59.6 µM (inactive).

Take `COc1cccc2sc(Nc3nnc(-c4ccccc4)o3)nc12`: the EC50 is > 59.6 µM (inactive). Same read-out and setting: under `CCc1nnc(NC(=O)CSc2ncc(C(=O)Nc3ccc(C)c(C)c3)c(=O)n2C)s1` stands > 59.6 µM (inactive); under `COc1ccccc1NC(=O)c1cnc(SCC(=O)Nc2nc3ccccc3s2)n(C)c1=O`, > 59.6 µM (inactive). Consider `COc1ccccc1NC(=O)c1cnc(SCC(=O)NCc2ccccc2)n(C)c1=O`, for which the EC50 was > 59.6 µM (inactive). Still for that read-out and setting: under `Fc1ccc2nc(Nc3nnc(-c4ccccc4Cl)o3)sc2c1` stands > 59.6 µM (inactive); under `Clc1ccc(-c2nnc(Nc3nc4cc5c(cc4s3)OCO5)o2)cc1`, > 59.6 µM (inactive); under `COc1ccccc1NC(=O)c1cnc(SCC(=O)NCCc2ccccc2)n(C)c1=O`, > 59.6 µM (inactive).

As to `CSc1ccc2nc(Nc3nnc(-c4ccc5c(c4)OCCO5)o3)sc2c1`, the EC50 is > 59.6 µM (inactive).

Consider `COc1ccc(-c2nnc(Nc3nc4cc(OC)ccc4s3)o2)c(OC)c1`, for which the EC50 was > 59.6 µM (inactive). The same measure, in the same setting: next, `Cc1ccc(NC(=O)c2cnc(SCC(=O)Nc3cccc(C(F)(F)F)c3)n(C)c2=O)cc1C`: 28.7 µM (inactive); `COc1ccc(-c2nnc(Nc3nc4c(OC)cccc4s3)o2)cc1`: > 59.6 µM (inactive); `COc1ccc(-c2nnc(Nc3nc4c(OC)cccc4s3)o2)c(OC)c1`: > 59.6 µM (inactive). On the same count and under the same terms, next, `COc1ccccc1NC(=O)c1cnc(SCC(=O)NCc2ccc3c(c2)OCO3)n(C)c1=O`: > 59.6 µM (inactive). The same measure, in the same setting: under `COc1cccc2sc(Nc3nnc(-c4ccccc4Cl)o3)nc12` stands > 59.6 µM (inactive). With `COc1ccccc1-c1nnc(Nc2nc3c(OC)cccc3s2)o1`, the EC50 was > 59.6 µM (inactive). Take `COc1ccc(-c2nnc(Nc3nc4ccc(SC)cc4s3)o2)c(OC)c1`: the EC50 is > 59.6 µM (inactive). On to `Fc1ccc(-c2nnc(Nc3nc4c(F)cccc4s3)o2)cc1`, for which the pEC50 was 6.20.

Take `Cn1c(SCC(=O)NCC2CCCO2)ncc(C(=O)Nc2ccccc2)c1=O` (stereo not drawn): the EC50 was > 59.6 µM (inactive). Consider `Fc1cccc2sc(Nc3nnc(-c4ccccc4Cl)o3)nc12`, for which the pEC50 is 5.31.

Take `Cn1c(SCC(=O)NCC2CCCO2)ncc(C(=O)Nc2ccc(F)cc2)c1=O` (stereo not drawn): the EC50 was > 59.6 µM (inactive). Same read-out and setting: next, `CSc1ccc2nc(Nc3nnc(-c4ccccc4Cl)o3)sc2c1`: 27.6 µM (inactive).
